{
  "source": "PubChem BioAssay (NCI)",
  "experiment_in_all_cases": "NCI tumour cell line growth inhibition, 48 h",
  "key": {"[1]": {"tested_on": "NCI-H522 lung"}, "[2]": {"tested_on": "SNB-75 CNS"}, "[3]": {"tested_on": "SF-268 CNS"}, "[4]": {"tested_on": "OVCAR-4 ovarian"}, "[5]": {"tested_on": "UO-31 renal"}, "[6]": {"tested_on": "KM12 colon"}, "[7]": {"tested_on": "EKVX NSCLC"}, "[8]": {"tested_on": "RXF-631 renal"}, "[9]": {"tested_on": "HCT-15 colon"}, "[10]": {"tested_on": "SN12C renal"}, "[11]": {"tested_on": "TK-10 renal"}, "[12]": {"tested_on": "LXFL 529 NSCLC"}, "[13]": {"tested_on": "LOX IMVI melanoma"}, "[14]": {"tested_on": "SR leukemia"}, "[15]": {"tested_on": "UACC-62 melanoma"}, "[16]": {"tested_on": "HOP-92 NSCLC"}, "[17]": {"tested_on": "M19-MEL melanoma"}, "[18]": {"tested_on": "MOLT-4 leukemia"}, "[19]": {"tested_on": "DMS 273 small cell lung"}, "[20]": {"tested_on": "SW-620 colon"}, "[21]": {"tested_on": "RXF 393 renal"}, "[22]": {"tested_on": "SK-MEL-28 melanoma"}, "[23]": {"tested_on": "CCRF-CEM leukemia"}, "[24]": {"tested_on": "SF-539 CNS"}, "[25]": {"tested_on": "DMS 114 small cell lung"}, "[26]": {"tested_on": "RPMI-8226 leukemia"}, "[27]": {"tested_on": "OVCAR-5 ovarian"}, "[28]": {"tested_on": "HCT-116 colon"}, "[29]": {"tested_on": "HOP-62 NSCLC"}, "[30]": {"tested_on": "NCI-H460 lung"}, "[31]": {"tested_on": "UACC-257 melanoma"}, "[32]": {"tested_on": "ACHN renal"}, "[33]": {"tested_on": "A498 renal"}, "[34]": {"tested_on": "SNB-19 CNS"}, "[35]": {"tested_on": "786-0 renal"}, "[36]": {"tested_on": "XF 498 CNS"}, "[37]": {"tested_on": "OVCAR-8 ovarian"}, "[38]": {"tested_on": "HL-60(TB) leukemia"}, "[39]": {"tested_on": "SNB-78 CNS"}, "[40]": {"tested_on": "IGROV1 ovarian"}, "[41]": {"tested_on": "NCI-H23 lung"}, "[42]": {"tested_on": "DLD-1 colon"}, "[43]": {"tested_on": "HCC-2998 colon"}, "[44]": {"tested_on": "KM20L2 colon"}, "[45]": {"tested_on": "HOP-18 NSCLC"}, "[46]": {"tested_on": "M14 melanoma"}, "[47]": {"tested_on": "HT29 colon"}, "[48]": {"tested_on": "NCI-H226 lung"}, "[49]": {"tested_on": "SF-295 CNS"}, "[50]": {"tested_on": "SK-OV-3 ovarian"}, "[51]": {"tested_on": "SK-MEL-2 melanoma"}, "[52]": {"tested_on": "U251 CNS"}, "[53]": {"tested_on": "MALME-3M melanoma"}, "[54]": {"tested_on": "K-562 leukemia"}},
  "note": "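Results reflect a 48-hour exposure of cells in 96-well plates to compound at five concentrations. TGI: concentration producing complete growth inhibition.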",
  "data": [
    {"smiles": "CCCCCCCCCCCCOC(=S)NCCCC", "values": [
      {"measurement": "TGI", "setting": "[1]", "result": 36.5, "unit": "µM"},
      {"measurement": "TGI", "setting": "[2]", "result": 95.1, "unit": "µM"},
      {"measurement": "TGI", "setting": "[3]", "result": 58.1, "unit": "µM"},
      {"measurement": "TGI", "setting": "[4]", "result": 99.7, "unit": "µM"},
      {"measurement": "TGI", "setting": "[5]", "result": 20.1, "unit": "µM"},
      {"measurement": "TGI", "setting": "[6]", "result": 41.9, "unit": "µM"},
      {"measurement": "TGI", "setting": "[7]", "result": 47.8, "unit": "µM"},
      {"measurement": "TGI", "setting": "[8]", "result": 55.6, "unit": "µM"},
      {"measurement": "TGI", "setting": "[9]", "result": 37.2, "unit": "µM"},
      {"measurement": "TGI", "setting": "[10]", "result": 45.2, "unit": "µM"},
      {"measurement": "TGI", "setting": "[11]", "result": "> 100", "unit": "µM"},
      {"measurement": "TGI", "setting": "[12]", "result": "> 100", "unit": "µM"},
      {"measurement": "TGI", "setting": "[13]", "result": 32, "unit": "µM"},
      {"measurement": "TGI", "setting": "[14]", "result": 42.7, "unit": "µM"},
      {"measurement": "TGI", "setting": "[15]", "result": 40.6, "unit": "µM"},
      {"measurement": "TGI", "setting": "[16]", "result": 46.9, "unit": "µM"},
      {"measurement": "TGI", "setting": "[17]", "result": "> 100", "unit": "µM"},
      {"measurement": "TGI", "setting": "[18]", "result": 36, "unit": "µM"},
      {"measurement": "TGI", "setting": "[19]", "result": 41, "unit": "µM"},
      {"measurement": "TGI", "setting": "[20]", "result": 35.5, "unit": "µM"},
      {"measurement": "TGI", "setting": "[21]", "result": 56.8, "unit": "µM"},
      {"measurement": "TGI", "setting": "[22]", "result": 90.9, "unit": "µM"},
      {"measurement": "TGI", "setting": "[23]", "result": 80.4, "unit": "µM"},
      {"measurement": "TGI", "setting": "[24]", "result": 48.5, "unit": "µM"},
      {"measurement": "TGI", "setting": "[25]", "result": 37.7, "unit": "µM"},
      {"measurement": "TGI", "setting": "[26]", "result": 34.2, "unit": "µM"},
      {"measurement": "TGI", "setting": "[27]", "result": 51.4, "unit": "µM"},
      {"measurement": "TGI", "setting": "[28]", "result": 35, "unit": "µM"},
      {"measurement": "TGI", "setting": "[29]", "result": 73.4, "unit": "µM"},
      {"measurement": "TGI", "setting": "[30]", "result": 53.2, "unit": "µM"},
      {"measurement": "TGI", "setting": "[31]", "result": 44, "unit": "µM"},
      {"measurement": "TGI", "setting": "[32]", "result": 50.5, "unit": "µM"},
      {"measurement": "TGI", "setting": "[33]", "result": 43.1, "unit": "µM"},
      {"measurement": "TGI", "setting": "[34]", "result": "> 100", "unit": "µM"},
      {"measurement": "TGI", "setting": "[35]", "result": 67.7, "unit": "µM"},
      {"measurement": "TGI", "setting": "[36]", "result": 31.9, "unit": "µM"},
      {"measurement": "TGI", "setting": "[37]", "result": 40.2, "unit": "µM"},
      {"measurement": "TGI", "setting": "[38]", "result": 43.1, "unit": "µM"},
      {"measurement": "TGI", "setting": "[39]", "result": 88.4, "unit": "µM"},
      {"measurement": "TGI", "setting": "[40]", "result": 81.1, "unit": "µM"},
      {"measurement": "TGI", "setting": "[41]", "result": 57.9, "unit": "µM"},
      {"measurement": "TGI", "setting": "[42]", "result": "> 100", "unit": "µM"},
      {"measurement": "TGI", "setting": "[43]", "result": 34, "unit": "µM"},
      {"measurement": "TGI", "setting": "[44]", "result": 39.5, "unit": "µM"},
      {"measurement": "TGI", "setting": "[45]", "result": 89.1, "unit": "µM"},
      {"measurement": "TGI", "setting": "[46]", "result": 79, "unit": "µM"},
      {"measurement": "TGI", "setting": "[47]", "result": 38.1, "unit": "µM"},
      {"measurement": "TGI", "setting": "[48]", "result": 45.1, "unit": "µM"},
      {"measurement": "TGI", "setting": "[49]", "result": "> 100", "unit": "µM"},
      {"measurement": "TGI", "setting": "[50]", "result": 71.1, "unit": "µM"},
      {"measurement": "TGI", "setting": "[51]", "result": 44.2, "unit": "µM"},
      {"measurement": "TGI", "setting": "[52]", "result": 37.2, "unit": "µM"},
      {"measurement": "TGI", "setting": "[53]", "result": 64, "unit": "µM"},
      {"measurement": "TGI", "setting": "[54]", "result": 41.3, "unit": "µM"}
    ]}
  ]
}
